Values quoted from earlier work, collected in patent US6340484B1, “Compositions containing neem seed extracts and saccharide” (E.I.D. Parry (India) Limited, priority 2000, dated 2002).
Where two headings read alike, the source gives them in different places.

Conditions: 25 days at 29+/−1° C.

SMILES: C/C=C(\C)C(=O)O[C@H]1C[C@@H](OC(C)=O)[C@@]2(C(=O)OC)CO[C@H]3[C@@H](O)[C@@](C)([C@]45O[C@@]4(C)[C@@H]4C[C@H]5O[C@@H]5OC=C[C@@]54O)[C@H]4[C@]1(CO[C@]4(O)C(=O)OC)[C@@H]32 [azadirachtin A]
- degradation of azadirachtin A (in acetone): 50%
- degradation of azadirachtin A (in carbon tetrachloride): 75-80%
- degradation of azadirachtin A (in chloroform): 75-80%
- degradation of azadirachtin A (in ethanol): about 85%
- degradation of azadirachtin A (in methanol): 50%
- degradation of azadirachtin A (in methylene chloride): 75-80%
- degradation of azadirachtin A (in water): about 85%
